One may read the IC50 as the concentration needed to halve the response being measured.

Where only a bound is given, the exact number is not on record here.

The record followed here is US20220332699A1 (SAGE THERAPEUTICS, INC., priority 2019, published 2022).

Sequence of CYP46A1 (Q9Y6A2 whole entry): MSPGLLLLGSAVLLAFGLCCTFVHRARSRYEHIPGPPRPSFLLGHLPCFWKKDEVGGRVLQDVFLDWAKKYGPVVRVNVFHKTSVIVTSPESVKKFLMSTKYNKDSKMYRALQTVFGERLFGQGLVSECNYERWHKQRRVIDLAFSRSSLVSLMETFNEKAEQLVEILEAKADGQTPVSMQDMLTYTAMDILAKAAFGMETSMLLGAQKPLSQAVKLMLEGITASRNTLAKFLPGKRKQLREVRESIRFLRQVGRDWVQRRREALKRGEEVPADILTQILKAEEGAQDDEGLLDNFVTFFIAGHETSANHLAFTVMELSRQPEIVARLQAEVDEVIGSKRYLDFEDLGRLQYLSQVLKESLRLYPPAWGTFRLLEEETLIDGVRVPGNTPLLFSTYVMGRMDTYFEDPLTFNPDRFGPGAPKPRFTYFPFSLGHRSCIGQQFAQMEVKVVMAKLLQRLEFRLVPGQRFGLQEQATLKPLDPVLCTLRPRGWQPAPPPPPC

One experiment addresses CYP46A1 (Homo sapiens, UniProt Q9Y6A2). The experiment is described as follows: CYP46A1 Enzyme Assay 2 (testosterone substrate, HPLC-MS). It is filed as biochemical.
Conditions: not given
In outline:
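CYP46A1 (5 μM final) with testosterone ([…] final) preincubated with compound 30 min at 37° C, reaction started with NADPH-generating system and run 15 min at 37° C. Quenched in methanol containing diclofenac internal standard; product read by HPLC-MS.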
Regarding `N#CC1(c2ccccc2)CCN(C(=O)c2cccnc2-c2ccncn2)CC1` [Compound A256, 4-phenyl-1-(2-(pyrimidin-4-yl)nicotinoyl)piperidine-4-carbonitrile], the IC50 was over 1000 nM.

Staying with this experiment, now noted: read-out: IC50 (CYP46A1 inhibitory activity).
Take `Cc1ccc(C(=O)N2CCC(C#N)(Cc3ccc(F)cc3)CC2)c(-c2ccncn2)n1` [Compound A249, 4-(4-fluorobenzyl)-1-(6-methyl-2-(pyrimidin-4-yl)nicotinoyl)piperidine-4-carbonitrile]: the half-maximal inhibitory concentration (IC50) was over 1000 nM.

With `C[C@@H](c1ccc(C(F)(F)F)cc1)C1(C#N)CCN(C(=O)c2cccnc2-c2ccncn2)CC1` [Compound A250, (S)-1-(2-(pyrimidin-4-yl)nicotinoyl)-4-(1-(4-(trifluoromethyl)phenyl)ethyl)piperidine-4-carbonitrile], the 50% inhibitory concentration (IC50) was under 100 nM.

For `C[C@H](c1ccc(C(F)(F)F)cc1)C1(C#N)CCN(C(=O)c2cccnc2-c2ccncn2)CC1` [Compound A251, (R)-1-(2-(pyrimidin-4-yl)nicotinoyl)-4-(1-(4-(trifluoromethyl)phenyl)ethyl)piperidine-4-carbonitrile], the 50% inhibitory concentration (IC50) is under 100 nM.

`N#C[C@@]1(Cc2ccc(F)cc2)C[C@H]2CC[C@@H](C1)N2C(=O)c1cccnc1-c1ccncn1` [Compound A252, (1R,3r,5S)-3-(4-fluorobenzyl)-8-(2-(pyrimidin-4-yl)nicotinoyl)-8-azabicyclo[3.2.1]octane-3-carbonitrile]: the IC50 was 100 to 1000 nM.

Take `N#C[C@]1(Cc2ccc(F)cc2)[C@@H]2CC[C@H]1CN(C(=O)c1cccnc1-c1ccncn1)C2` [Compound A253, (1R,5S,8r)-8-(4-fluorobenzyl)-3-(2-(pyrimidin-4-yl)nicotinoyl)-3-azabicyclo[3.2.1]octane-8-carbonitrile]: the 50% inhibitory concentration (IC50) was over 1000 nM.

`N#CC1(Cc2ccc(F)cc2)CCN(C(=O)c2cc(C3CC3)ccc2-c2ccncn2)CC1` [Compound A254, 1-(5-cyclopropyl-2-(pyrimidin-4-yl)benzoyl)-4-(4-fluorobenzyl)piperidine-4-carbonitrile]: the IC50 is under 100 nM.

For `N#CC1(Cc2ccc(C(F)(F)F)cc2F)CCN(C(=O)c2cccnc2-c2ccncc2)CC1` [Compound A255, 1-([2,4′-bipyridine]-3-carbonyl)-4-(2-fluoro-4-(trifluoromethyl)benzyl)piperidine-4-carbonitrile], the IC50 is under 100 nM.

`N#CC1(Cc2cc(F)ccc2F)CCN(C(=O)c2cccnc2-c2ccncn2)CC1` [Compound A261, 4-(2,5-difluorobenzyl)-1-(2-(pyrimidin-4-yl)nicotinoyl)piperidine-4-carbonitrile]: the half-inhibitory concentration (IC50) was under 100 nM.

Regarding `N#CC1(Cc2ccccc2C(F)(F)F)CCN(C(=O)c2cccnc2-c2ccncn2)CC1` [Compound A262, 1-(2-(pyrimidin-4-yl)nicotinoyl)-4-(2-(trifluoromethyl)benzyl)piperidine-4-carbonitrile], the 50% inhibitory concentration (IC50) was under 100 nM.

On to `N#CC1(Cc2c(F)cc(F)cc2F)CCN(C(=O)c2cccnc2-c2ccncn2)CC1` [Compound A263, 1-(2-(pyrimidin-4-yl)nicotinoyl)-4-(2,4,6-trifluorobenzyl)piperidine-4-carbonitrile], for which the IC50 is under 100 nM.

Turning to `N#CC1(Cc2cccc(C(F)(F)F)c2)CCN(C(=O)c2cccnc2-c2ccncn2)CC1` [Compound A264, 1-(2-(pyrimidin-4-yl)nicotinoyl)-4-(3-(trifluoromethyl)benzyl)piperidine-4-carbonitrile], the concentration for half-maximal inhibition (IC50) is under 100 nM.

For `N#CC1(Cc2cccc(C(F)(F)F)c2F)CCN(C(=O)c2cccnc2-c2ccncn2)CC1` [Compound A265, 4-(2-fluoro-3-(trifluoromethyl)benzyl)-1-(2-(pyrimidin-4-yl)nicotinoyl)piperidine-4-carbonitrile], the half-maximal inhibitory concentration (IC50) is under 100 nM.

On to `N#CC1(Cc2cccc(C(F)(F)F)c2F)CCN(C(=O)c2cccnc2-c2ccncc2)CC1` [Compound A266, 1-([2,4′-bipyridine]-3-carbonyl)-4-(2-fluoro-3-(trifluoromethyl)benzyl)piperidine-4-carbonitrile], for which the IC50 is under 100 nM.

For `N#CC1(Cc2ccc(F)c(C(F)(F)F)c2)CCN(C(=O)c2cccnc2-c2ccncn2)CC1` [Compound A267, 4-(4-fluoro-3-(trifluoromethyl)benzyl)-1-(2-(pyrimidin-4-yl)nicotinoyl)piperidine-4-carbonitrile], the IC50 was under 100 nM.

For the molecule `N#CC1(Cc2c(F)cc(F)cc2F)CCN(C(=O)c2cccnc2-c2ccncc2)CC1` [Compound A272, 1-([2,4′-bipyridine]-3-carbonyl)-4-(2,4,6-trifluorobenzyl)piperidine-4-carbonitrile], the 50% inhibitory concentration (IC50) is under 100 nM.

For the molecule `N#CC1(Cc2cc(C(F)(F)F)ccc2F)CCN(C(=O)c2cccnc2-c2ccncn2)CC1` [Compound A273, 4-(2-fluoro-5-(trifluoromethyl)benzyl)-1-(2-(pyrimidin-4-yl)nicotinoyl)piperidine-4-carbonitrile], the half-inhibitory concentration (IC50) was under 100 nM.

Take `N#CC1(Cc2c(F)cccc2F)CCN(C(=O)c2cccnc2-c2ccncc2)CC1` [Compound A274, 1-([2,4′-bipyridine]-3-carbonyl)-4-(2,6-difluorobenzyl)piperidine-4-carbonitrile]: the IC50 was under 100 nM.

As to `N#CC1(Cc2ccccc2C(F)(F)F)CCN(C(=O)c2cccnc2-c2ccncc2)CC1` [Compound A275, 1-([2,4′-bipyridine]-3-carbonyl)-4-(2-(trifluoromethyl)benzyl)piperidine-4-carbonitrile], the IC50 is under 100 nM.

In the case of `N#CC1(Cc2ccc(F)cc2C(F)(F)F)CCN(C(=O)c2cccnc2-c2ccncn2)CC1` [Compound A276, 4-(4-fluoro-2-(trifluoromethyl)benzyl)-1-(2-(pyrimidin-4-yl)nicotinoyl)piperidine-4-carbonitrile], the IC50 lay in the range of 100 to 1000 nM.

Turning to `N#CC1(Cc2ccc(F)cc2C(F)(F)F)CCN(C(=O)c2cccnc2-c2ccncc2)CC1` [Compound A277, 1-([2,4′-bipyridine]-3-carbonyl)-4-(4-fluoro-2-(trifluoromethyl)benzyl)piperidine-4-carbonitrile], the IC50 is under 100 nM.

For the molecule `N#CC1(Cc2ccc(F)c(C(F)(F)F)c2)CCN(C(=O)c2cccnc2-c2ccncc2)CC1` [Compound A278, 1-([2,4′-bipyridine]-3-carbonyl)-4-(4-fluoro-3-(trifluoromethyl)benzyl)piperidine-4-carbonitrile], the IC50 is under 100 nM.

Consider `N#CC1(Cc2cccc(C(F)(F)F)c2)CCN(C(=O)c2cccnc2-c2ccncc2)CC1` [Compound A279, 1-([2,4′-bipyridine]-3-carbonyl)-4-(3-(trifluoromethyl)benzyl)piperidine-4-carbonitrile], for which the 50% inhibitory concentration (IC50) was under 100 nM.

As to `N#CC1(Cc2c(F)cc(C(F)(F)F)cc2F)CCN(C(=O)c2cccnc2-c2ccncc2)CC1` [Compound A280, 1-([2,4′-bipyridine]-3-carbonyl)-4-(2,6-difluoro-4-(trifluoromethyl)benzyl)piperidine-4-carbonitrile], the IC50 is under 100 nM.

Take `N#CC1(Cc2c(F)cc(C(F)(F)F)cc2F)CCN(C(=O)c2cccnc2-c2ccncn2)CC1` [Compound A281, 4-(2,6-difluoro-4-(trifluoromethyl)benzyl)-1-(2-(pyrimidin-4-yl)nicotinoyl)piperidine-4-carbonitrile]: the IC50 is under 100 nM.
